The values below come from patent US20180343857A1, “BIOSOLUBILIZER” (SOLIANCE, priority 2012, published 2018).

The structures appear in SMILES notation. Where a name gives a salt, the structure may show the parent alone.

For the assay, the system named is Avena Fatua. Kind of assay: Biological effectiveness of glyphosate with extemporaneous adjuvant (biomass reduction curves). Format: in vivo. The following applies: Avena Fatua in pots; glyphosate 50 to 650 g equivalent acid per hectare; dry biomass 3 weeks after treatment; R = 1 for herbicide without adjuvant. An excerpt:
The preparation of example 2.4 containing terpenic alcohols solubilised by sophorolipids is used as an extemporaneous adjuvant of glyphosate. Glyphosate is a non-selective herbicide, the definition and use of which are described in particular in “The biochemistry and uses of pesticides, 2nd edition” by Kenneth A. Hassall published by VCH (1990). An extemporaneous adjuvant is a preparation added to the phytosanitary preparation at the moment of application and is used to reinforce the action of the latter.
The glyphosate used is a solution of glyphosate in the form of isopropylamine salt titrated to 620 g/l equivalent glyphosate acid.
The effectiveness of the preparation according to the invention is assessed by forming curves of biological effectiveness, that is by determining the ability of the preparations to reduce the biomass of a target plant as a function of the concentration of herbicide. […]
where Y is the dry biomass of the plant (plant cut at the base and dried 24 h at 110° C. in a ventilated heat chamber), X is the concentration of herbicide expressed in grams of glyphosate acid per hectare. C, D, a and b being factors determined by analysing the curve according to the least squares method. […] Its value is determined by applying the above equation with the parameters D, C, a and b of the curve of the herbicide without adjuvant (R=1) according to the least squares method. […]

With `O=C(O)CNCP(=O)(O)O` [Glyphosate (iso-propylamine salt), Glyphosate], the “R (factor of effectiveness)” value is recorded as 1.
